The values that follow come from US20040096941A1, “Receptor for plant cell growth factor” (priority 2002, published 2004).

Square brackets hold non-standard residues; d marks the D form. Side chains are listed from the residue outwards. Ends that are not written are not given here. Peptide text beside a SMILES is read from it. sY = N[C@@H](Cc1ccc(OS(=O)(=O)O)cc1)C(=O)O; Ahx = NCCCCCC(=O)O

Assay [1] addresses T1, PSK receptor (120-kD receptor kinase) (Daucus carota, UniProt Q8LPB4).
T1 construct: The inserted portion (i.e., full length cDNA) in the positive phage was subcloned to pBS vector; expressed in transfected cells; host or cells: transgenic carrot cells (sense transformant, pBI121, CaMV 35S promoter); membrane fraction
T1 sequence (Q8LPB4 25-1021): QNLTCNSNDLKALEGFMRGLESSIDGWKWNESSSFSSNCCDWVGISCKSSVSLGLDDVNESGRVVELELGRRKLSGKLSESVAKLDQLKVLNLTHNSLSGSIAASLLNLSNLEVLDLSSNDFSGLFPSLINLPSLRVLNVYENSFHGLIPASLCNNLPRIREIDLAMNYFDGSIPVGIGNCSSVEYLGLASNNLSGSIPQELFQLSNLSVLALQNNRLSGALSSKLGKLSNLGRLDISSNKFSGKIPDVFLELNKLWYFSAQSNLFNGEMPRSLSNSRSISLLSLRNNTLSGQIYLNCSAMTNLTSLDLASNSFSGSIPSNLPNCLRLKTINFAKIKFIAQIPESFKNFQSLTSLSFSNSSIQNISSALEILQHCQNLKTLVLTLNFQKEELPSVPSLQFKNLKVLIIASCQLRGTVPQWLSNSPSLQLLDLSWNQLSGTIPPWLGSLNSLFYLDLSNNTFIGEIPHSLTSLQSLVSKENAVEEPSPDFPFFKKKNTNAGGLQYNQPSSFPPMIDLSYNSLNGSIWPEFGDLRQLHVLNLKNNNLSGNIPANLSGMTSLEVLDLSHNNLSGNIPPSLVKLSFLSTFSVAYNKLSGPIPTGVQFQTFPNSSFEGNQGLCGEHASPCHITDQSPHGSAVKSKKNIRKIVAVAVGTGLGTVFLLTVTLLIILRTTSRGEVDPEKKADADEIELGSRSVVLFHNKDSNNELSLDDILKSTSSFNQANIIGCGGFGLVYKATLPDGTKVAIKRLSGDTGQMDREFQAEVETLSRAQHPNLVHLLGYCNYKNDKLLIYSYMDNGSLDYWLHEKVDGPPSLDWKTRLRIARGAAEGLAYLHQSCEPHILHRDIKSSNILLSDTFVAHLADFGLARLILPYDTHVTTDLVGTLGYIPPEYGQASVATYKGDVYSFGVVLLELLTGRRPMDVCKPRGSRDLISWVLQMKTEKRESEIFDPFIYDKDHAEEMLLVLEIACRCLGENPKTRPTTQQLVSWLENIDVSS
Nature of the assay: specific binding of PSK to membrane fractions, Scatchard plot. Details: species or system carrot.

Assay [2] deals with transgenic carrot cells overexpressing the receptor protein (sense transformants). Put plainly: callus growth of transgenic carrot cells in response to PSK. The assay is classed as cell-based. To be noted: 10 nM PSK, 3 weeks on B5 media with NAA 1.0 mg/liter and 6-BA 0.5 mg/liter. The procedure:
The chimeric genes were composed of the receptor kinase ORF, in the sense or antisense orientation, under the control of the constitutive cauliflower mosaic virus 35S promoter incorporated within the binary vector pBI 121. Transformation of carrot hypocotyl segments and plant regeneration were performed following a protocol described elsewhere (M. Hardegger, A. Sturm, Mol. Breed. 4, 119 (1998)). Carrot cells transformed with the binary vector alone were used as controls. Analysis of variance of the growth data was carried out using the Student's t-test procedure of the Prism software (GraphPad Software).
The cDNA of the aforementioned protein was overexpressed in transgenic carrot cells, in sense orientation, under the control of the cauliflower mosaic virus 35S promoter. […] These phenotypes are consistent with the hypothesis that overexpression and antisense inhibition of this receptor protein alter the responsive property of carrot cells to PSK. FIGS. 6A to 6C show the callus growth of the sense transformants, the control cells, and antisense transformants exposed to 10 nM PSK, respectively. The transformed carrot cells and the control cells were cultured for 3 weeks on B5 media containing naphthaleneacetic acid (NAA, 1.0 mg/liter), 6-benzylamino purine (6-BA, 0.5 mg/liter), and 10 nM PSK. The scale bar in FIG. 6C represents 1 cm.

Assay [3] addresses T1, PSK receptor (120-kD receptor kinase). Nature of the assay: inhibition of [3H]PSK binding to the membrane fraction of the sense transformant by unlabelled competitors. To be noted: 6.3 nM [3H]PSK, 3.2 μM unlabelled competitor. Further details: species or system carrot. As for the experimental part:
The specificity of the PSK binding activity was characterized by comparing the relative binding affinity for several PSK analogs. […] The membrane proteins were incubated in binding buffer containing 6.3 nM [^3H]PSK and 3.2 μM of the competitor .

The target in assay [4] is PSK receptor protein (120-kD receptor kinase of carrot) (carrot) (UniProt Q8LPB4). Put plainly: [3H]PSK saturation binding to membrane fractions of control carrot cells (endogenous receptor), Scatchard plot.
Assay [5] has the same target. Put plainly: [3H]PSK saturation binding to membrane fractions of sense transformants, Scatchard plot.
Assay [6] concerns the target T2, PSK receptor protein (120-kD receptor kinase of carrot) (carrot, UniProt Q8LPB4 25-1021, N-linked oligosaccharide chains of approximately 10 kD (cleaved by PNGase F)).
T2 construct: Assayed in membrane fractions of carrot cells (sense transformants overexpressing the ORF; control cells with the endogenous protein) or solubilized from carrot NC cell microsomal membranes; also called phytosulfokine receptor; 120-kD protein
T2 sequence: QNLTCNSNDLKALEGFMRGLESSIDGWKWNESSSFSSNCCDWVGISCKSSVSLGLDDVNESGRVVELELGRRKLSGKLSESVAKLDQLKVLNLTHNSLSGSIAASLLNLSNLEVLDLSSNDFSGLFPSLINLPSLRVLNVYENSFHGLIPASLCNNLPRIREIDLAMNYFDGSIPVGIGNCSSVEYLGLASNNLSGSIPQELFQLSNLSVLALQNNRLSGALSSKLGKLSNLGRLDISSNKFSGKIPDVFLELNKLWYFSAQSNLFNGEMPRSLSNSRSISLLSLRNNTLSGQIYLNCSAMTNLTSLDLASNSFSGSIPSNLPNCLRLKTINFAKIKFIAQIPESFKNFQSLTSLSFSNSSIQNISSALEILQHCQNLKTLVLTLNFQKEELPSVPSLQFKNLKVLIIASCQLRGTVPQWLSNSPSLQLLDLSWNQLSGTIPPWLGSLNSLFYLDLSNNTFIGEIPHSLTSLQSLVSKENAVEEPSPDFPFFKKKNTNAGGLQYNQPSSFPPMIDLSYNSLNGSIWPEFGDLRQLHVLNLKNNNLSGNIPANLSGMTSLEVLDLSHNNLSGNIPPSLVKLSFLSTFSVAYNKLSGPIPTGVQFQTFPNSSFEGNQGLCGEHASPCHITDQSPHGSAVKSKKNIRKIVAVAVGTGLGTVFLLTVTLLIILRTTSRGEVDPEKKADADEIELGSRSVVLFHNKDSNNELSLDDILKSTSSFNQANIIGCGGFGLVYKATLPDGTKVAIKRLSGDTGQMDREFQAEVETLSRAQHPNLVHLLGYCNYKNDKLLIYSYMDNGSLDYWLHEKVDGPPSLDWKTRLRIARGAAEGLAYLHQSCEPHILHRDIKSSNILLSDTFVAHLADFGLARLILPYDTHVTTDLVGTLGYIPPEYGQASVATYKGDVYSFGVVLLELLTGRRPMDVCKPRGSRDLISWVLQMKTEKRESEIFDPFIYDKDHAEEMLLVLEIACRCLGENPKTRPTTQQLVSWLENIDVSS
Put plainly: affinity chromatography on [Lys5]PSK-Sepharose, elution with PSK, SDS-PAGE. The procedure: Carrot microsomal membranes (1,200 mg protein) were solubilized in 320 ml of buffer containing 20 mM HEPES-KOH (pH 7.5), 50 mM KCl, and 1.0% Triton X-100 (buffer A). Solubilized materials were centrifuged at 100,000 g for 30 min at 4° C., and supernatants were applied to the [Lys⁵]PSK-Sepharose column (5.0 ml) at a flow rate of 0.5 ml/min using the AKTA prime chromatography system (Amersham Pharmacia Biotech). After washing with 50 ml of buffer containing 20 mM HEPES-KOH (pH 7.5), 50 mM KCl, and 0.1% Triton X-100 (buffer B), the column was eluted with 15 ml of 1.0 mg/ml PSK in buffer B. The eluates were added to a 1.0-ml column of Macro-Prep Ceramic Hydroxyapatite Type I (Bio-Rad laboratories) at a flow rate of 0.5 ml/min at 4° C. The column was washed with 20 ml of buffer B and eluted with a 18-ml gradient of KH₂PO₄ (0 to 400 mM) in buffer B. Active fractions (12 ml), as determined by [³H]PSK binding assay, were concentrated by ultrafiltration (Ultrafree-15 with Biomax-10 membranes, Millipore) and analyzed by SDS-PAGE using 7.5% gels (Y. Matsubayashi, Y. Sakagami, Eur. J. Biochem. 262, 666 (1999)).
The PSK-binding proteins were purified with [Lys⁵] PSK-Sepharose column. The purified proteins were further purified by hydroxyapatite column chromatography, concentrated and subjected to SDS-PAGE and Nile red staining.

Setting [7] is: membrane fractions of control cells (binary vector alone).
The mark [8] stands for this setting: membrane fractions of sense transformant.

As usually defined, the Kd is the concentration at which binding is half-saturated. A high value points to weaker binding. As for `CC[C@H](C)[C@H](NC(=O)[C@@H](N)Cc1ccc(OS(=O)(=O)O)cc1)C(=O)N[C@@H](Cc1ccc(OS(=O)(=O)O)cc1)C(=O)N[C@H](C(=O)N[C@@H](CCC(N)=O)C(=O)O)[C@@H](C)O` [PSK, phytosulfokine] (H-[sY]I[sY]TQ-OH; N-terminus and C-terminus assumed), the “Bmax (maximum number of binding sites)” value is recorded as 34±2 fmol per mg of membrane protein in assay [1] (setting [7]) and 570±18 fmol per mg of membrane protein in assay [1] (setting [8]). Also, the Kd is 4.8 ± 1.1 nM in assay [1] (setting [7]) and 4.1 ± 0.5 nM in assay [1] (setting [8]). Besides, in assay [2], the “callus growth in response to PSK, compared with control cells” value is reported as “accelerated growth”. Further, the “inhibition of binding of [3H]PSK to the membrane fraction of the sense transformant” value in assay [3] is on record as “strongly inhibited”.

In the case of “[1-4]PSK: less active analog of PSK (YIYT)”, in assay [3], the “inhibition of binding of [3H]PSK to the membrane fraction of the sense transformant” value is reported as “less strongly inhibited”.

On to phytosulfokine (PSK) (peptide), for which the Bmax (fmol per mg of membrane protein) in assay [4] was 34; in assay [5], 570.

Turning to [sY]I[sY]TK([Ahx-Ahx-Ahx-Sepharose]) (also: Lys5 side chain coupled via Ahx spacer to Sepharose) [[Lys5]PSK-Sepharose], the binding result in assay [6] is recorded as “binds”.
